# Laboratory results as given in US7820594B2 (priority 2003, dated 2010).
# “And” between values parts separate entries of the source, which are not always exact repeats. Identical values can stand only once. Like-named read-outs stand apart in the source and are kept apart here.
# Tests used:
# [1] = test system: Botrytis cinerea; assay: PDA plate inhibition, caprylic acid and organic acids (Example 13); format: cell-based
# Protocol: (§1) Potato dextrose agar (PDA) plates, +/−amendments, were inoculated with selected pathogens. There were several replicate plates used per treatment group (per pathogen tested). After incubation of plates at room temperature, fungal growth was measured.
# [2] = test system: White mold; assay: as above; format: cell-based
# Protocol: as §1
# [3] = test system: Botrytis cinerea
# [4] = test system: White mold; format: cell-based
# [5] = test system: Septoria; format: cell-based
# [6] = test system: Late blight; format: cell-based
smiles,measurement,setting,value
"CCNCC.O=C(O)c1ccccc1O [0.010% diethylamine salicylate, diethylamine salicylate]",Inhibition (%) of Botrytis cinerea,[1],0%
same,Inhibition (%) of white mold,[2],7%
"O=C(O)C(O)C(O)C(=O)O (centres unmarked) [0.75% tartaric acid, tartaric acid]",Infected berries (% of total),[3]; Day 2 after treatment,31%
same,Infected berries (% of total),[3]; Day 3 after treatment,58%
"O=C(O)CO [0.0175% glycolic acid, glycolic acid]","Measurement of fungal growth, based on control plate (100%)",[4],127% and 108%
same,"Measurement of fungal growth, based on control plate (100%)",[5],80% and 90%
same,"Measurement of fungal growth, based on control plate (100%)",[6]; Day 2 after inoculum,79%
same,"Measurement of fungal growth, based on control plate (100%)",[6]; Day 3 after inoculum,104%
